This note sets out measurements from ChEMBL document CHEMBL1201862, “PubChem BioAssay data set” (2004).

Molecules are shown by their SMILES.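 Compound exposure: 48 hours, 5 concentrations, 96-well plates. GI50 = concentration required for 50% inhibition of growth.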 Active and inactive are the calls of the source. Rule as the data show it: active = GI50 up to about 1.1 µM and inactive = higher. Some results are limits rather than exact numbers.

Among the test systems are HT-29; SK-MEL-2; HOP-92; OVCAR-8; IGROV-1; OVCAR-5; SR; SK-MEL-28; RPMI-8226; SF-295; EKVX; OVCAR-3; HCT-116; COLO 205; A549; MCF7; DU-145; NCI/ADR-RES; PC-3.
Common to all, as to test: DTP human tumour cell line panel, 48 h

As usually defined, the GI50 is the concentration that inhibits growth by half. As for `Nc1ncnc2c1ncn2C1OC(CSCC(F)(F)F)C(O)C1O` (configuration not stated), the GI50 in the test on HT-29, with SK-MEL-2, in the test with HOP-92, in the test with OVCAR-8, in the test with IGROV-1 and in the test on OVCAR-5 was > 100 µM (inactive) each time. For the same compound, the GI50 in the test with SR, in the test on SK-MEL-28, in the test on RPMI-8226, in the test on SF-295, in the test on EKVX and in the test on OVCAR-3 was > 100 µM (inactive) throughout. Moreover, the GI50 in the test on HCT-116, with COLO 205 and with A549 was > 100 µM (inactive) throughout.
Regarding `COc1ccc(N2C(=O)[C@@H](N=[N+]=[N-])[C@@H]2[C@H]2COC(C)(C)O2)cc1`, the GI50 in the test on HT-29, with SK-MEL-2, with HOP-92, in the test on OVCAR-8, in the test on IGROV-1 and in the test with OVCAR-5 was > 100 µM (inactive) each time. Besides, the GI50 with SR, with SK-MEL-28, in the test with RPMI-8226, in the test on SF-295, in the test on EKVX and with OVCAR-3 was > 100 µM (inactive) each time. In addition, the GI50 with HCT-116, with COLO 205 and in the test with A549 was > 100 µM (inactive) in each case.
Consider `N=C(N)/N=C(\N)Nc1cnccn1`, for which the GI50 with MCF7, in the test with DU-145, in the test on HT-29, in the test with SK-MEL-2, in the test on HOP-92 and with OVCAR-8 was > 100 µM (inactive) throughout. In addition, the GI50 in the test on IGROV-1, in the test on SK-MEL-28, in the test on SF-295, in the test on NCI/ADR-RES, with PC-3 and in the test with EKVX was > 100 µM (inactive) throughout. In addition, the GI50 in the test with OVCAR-3, in the test with HCT-116, with COLO 205 and with A549 was > 100 µM (inactive) in each case.
`COc1ccc(C(=O)NCCN(C)C)c2nc3ccccc3nc12`: the GI50 with HT-29 is 2.76 µM (inactive); with SK-MEL-2, 4.01 µM (inactive); in the test on HOP-92 it was 9.51 µM (inactive); with OVCAR-8, 4.3 µM (inactive); with IGROV-1, 3.14 µM (inactive); in the test on OVCAR-5, 8.61 µM (inactive). In addition, the GI50 in the test on SR is 0.708 µM (active); in the test with SK-MEL-28, 5.89 µM (inactive); in the test with RPMI-8226, 3.21 µM (inactive); with SF-295, 6.82 µM (inactive); in the test with EKVX it was 6.41 µM (inactive); in the test with OVCAR-3, 5.25 µM (inactive). Also, the GI50 with HCT-116 is 2.24 µM (inactive); in the test with COLO 205, 3.46 µM (inactive); with A549, 4.93 µM (inactive).
In the case of `CCOC(=O)[C@@H]1ON2O[C@H](OC3CCCCC3c3ccccc3)C[C@H]3OC(=O)[C@@H]1C32` (some centres not stated), the GI50 in the test on MCF7, in the test on DU-145, with HT-29, in the test on HOP-92, in the test with OVCAR-8 and in the test on IGROV-1 was > 100 µM (inactive) throughout. The GI50 with OVCAR-5, in the test with SR, with RPMI-8226, with SF-295, in the test with NCI/ADR-RES and in the test with EKVX was > 100 µM (inactive) each time. In addition, the GI50 in the test with OVCAR-3, in the test on HCT-116, with COLO 205 and with A549 was > 100 µM (inactive) throughout.
As to `CCOC(=O)N1C(c2ccccc2)C=CC(c2ccccc2)N1C(=O)OCC` (configuration not stated), the GI50 in the test on HT-29, in the test on SK-MEL-2, in the test with HOP-92, with OVCAR-8, with IGROV-1 and with OVCAR-5 was > 100 µM (inactive) throughout. Further, the GI50 in the test on SR, in the test with SK-MEL-28, in the test with RPMI-8226, in the test on SF-295, with EKVX and in the test on OVCAR-3 was > 100 µM (inactive) in each case. Moreover, the GI50 in the test on HCT-116, in the test with COLO 205 and in the test with A549 was > 100 µM (inactive) throughout.
As to `CCCCOCc1cc(CN2CCN(C)CC2)c(O)c2ncccc12`, the GI50 in the test on HT-29 was 31.6 µM (inactive); with SK-MEL-2, 25.3 µM (inactive); with HOP-92 it was 55.1 µM (inactive); in the test with OVCAR-8 it was 17.8 µM (inactive); with IGROV-1, 29.3 µM (inactive); in the test with OVCAR-5, 24.4 µM (inactive). Besides, the GI50 in the test with SR is 3.49 µM (inactive); in the test on SK-MEL-28, 31.4 µM (inactive); in the test with RPMI-8226, 3.29 µM (inactive); in the test on SF-295 it was 4.17 µM (inactive); with EKVX, 23.5 µM (inactive); in the test on OVCAR-3, 7.59 µM (inactive). The values for the GI50 in the test with HCT-116, with COLO 205 and in the test with A549 were 14.7 µM (inactive), 29.6 µM (inactive) and 23.6 µM (inactive), respectively.
Take `[N-]=[N+]=NC(CBr)c1cn([C@H]2C[C@H](O)[C@@H](CO)O2)c(=O)[nH]c1=O` (some centres not stated): the GI50 in the test with HT-29, in the test on SK-MEL-2, in the test with HOP-92, in the test with OVCAR-8, with IGROV-1 and in the test with OVCAR-5 was > 100 µM (inactive) in each case. Besides, the GI50 in the test with SR, with SK-MEL-28, with RPMI-8226, in the test with SF-295, in the test with EKVX and in the test on OVCAR-3 was > 100 µM (inactive) in each case. The GI50 in the test on HCT-116, in the test on COLO 205 and with A549 was > 100 µM (inactive) throughout.
As for `CN(C)CCNC(=O)c1cccc2nc3cc(Cl)ccc3nc12`, the GI50 with HT-29 is 1.36 µM (inactive); in the test on SK-MEL-2, 2.47 µM (inactive); with HOP-92 it was 5.77 µM (inactive); with OVCAR-8, 1.99 µM (inactive); with IGROV-1 it was 5.25 µM (inactive); with OVCAR-5, 3.05 µM (inactive). Besides, the concentration for 50% growth inhibition (GI50) in the test with SR was 0.531 µM (active); in the test on SK-MEL-28 it was 2.9 µM (inactive); in the test on RPMI-8226, 3.07 µM (inactive); in the test on SF-295, 3.25 µM (inactive); in the test on EKVX, 4.25 µM (inactive); in the test on OVCAR-3, 2.17 µM (inactive). Moreover, the 50% growth inhibitory concentration (GI50) with HCT-116 is 0.764 µM (active); in the test on COLO 205 it was 1.86 µM (inactive); in the test with A549, 2.56 µM (inactive).
